This assay concerns the target T1, Itk^32K L351A (Homo sapiens, UniProt Q08881, L351A).
T1 construct: Human Itk^171–620 (Itk^32K); GST (cleaved yes); made in house; host or cells: baculovirus-infected Sf9 insect cells
T1 sequence (Q08881 171-620 L351A): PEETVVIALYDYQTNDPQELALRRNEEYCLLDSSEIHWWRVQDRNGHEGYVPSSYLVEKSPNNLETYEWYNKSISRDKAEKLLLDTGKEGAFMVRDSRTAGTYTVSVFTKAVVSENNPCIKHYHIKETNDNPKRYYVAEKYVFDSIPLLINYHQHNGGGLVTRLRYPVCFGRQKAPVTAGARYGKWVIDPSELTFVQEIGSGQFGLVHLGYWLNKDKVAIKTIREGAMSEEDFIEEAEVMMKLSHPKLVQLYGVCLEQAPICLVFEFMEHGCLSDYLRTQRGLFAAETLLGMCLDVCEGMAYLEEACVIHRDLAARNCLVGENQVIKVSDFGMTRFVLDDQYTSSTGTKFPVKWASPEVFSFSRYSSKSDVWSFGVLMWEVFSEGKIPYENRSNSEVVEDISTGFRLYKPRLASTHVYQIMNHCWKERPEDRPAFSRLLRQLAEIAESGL
The assay can be described thus: Fluorescence anisotropy binding of Mant-labelled nucleotides. An excerpt: Figure 3 An allosteric switch triggers nucleotide exchange. (a) Hydrophobic stack conservation in Src family kinases. The table illustrates the amino acid identity at each of the three positions in the hydrophobic stack in addition to the invariant tryptophan (Trp260 in Src) for all Src family kinase members. The positions are presented according to their N- to C-terminal order in the primary sequences. Where it was not possible to unambiguously determine the identity of the amino acid contributed by the SH2-kinase variable linker (V3), the residue is denoted by a question mark. (b) Small angle X-ray scattering of Itk^32K L351A (black). The scattering curve for wild type Itk^32K (cyan) is overlaid for comparison. […] (c) Rigid body modelling of Itk^32K L351A and fit to ab initio molecular envelope. Displacement of both the SH3 and SH2 domains is required for a good fit to the experimental scattering curve. (d) Determination of the binding constants of Itk^32K L351A for nucleotides by fluorescence anisotropy. […] (e) Determination of the thermal stabilities and relative binding affinities of non-phosphorylated Src^32KΔC L255A for nucleotides by differential scanning fluorimetry. […] TEXT PRINTED IN THE PICTURE: (d) Mant-ADP: Itk^32K L351A (non-phos) Kd (μM): 21.0 ± 2.1 | (d) Mant-ATP: Itk^32K L351A (non-phos) Kd (μM): 31.7 ± 2.7 | (e) ADP: Src^32KΔC L255A (non-phos) [nuc]1/2 (μM): 310 ± 20; Src^32KΔC L255A (non-phos) Tm^max (°C): 52.9; Src^32KΔC L255A (non-phos) ΔTm^max (°C): + 6.8 | (e) ATP: Src^32KΔC L255A (non-phos) [nuc]1/2 (μM): 100 ± 10; Src^32KΔC L255A (non-phos) Tm^max (°C): 54.2; Src^32KΔC L255A (non-phos) ΔTm^max (°C): + 8.1 | (e) apo: Src^32KΔC L255A (non-phos) Tm^max (°C): 46.1
To establish whether hydrophobic stack disassembly triggers a switch in nucleotide binding of the kinase domain, we measured the binding of both unphosphorylated and activation loop phosphorylated (pY511) Itk^32K L351A to ADP and ATP.
The binding constants for ADP and AMPPNP were determined for Src and Itk proteins by fluorescence anisotropy, using 2′/3′-Mant-labelled nucleotides (Jena Bioscience). Increasing concentrations of Itk^32K, Itk^L351A or Src^32K were incubated with 40 μM Mant-nucleotide in 30 mM Tris pH 7.5, 200 mM NaCl, 5 mM MgCl2, and 1 mM TCEP. Measurements were made with a Perkin Elmer LS50B fluorimeter (λex = 355 nm, λem = 447 nm) at 20 °C. For each data point 50–60 measurements, each with an integration time of 1 s, were averaged. For competition nucleotide displacement assays, 40–80 μM of protein was incubated with 40 μM Mant-ADP until equilibrium was established. Unlabelled nucleotide was titrated into the reaction and fluorescence anisotropy monitored. The equilibrium inhibition constant for the unlabelled nucleotide was calculated from the fitted curve.
For orientation: Polarisation of emitted light reports the rotation of a fluorescent probe.

SMILES strings stand for the structures. Read-outs that look alike come from different tables or passages of the source.

Usually Kd stands for the concentration at which binding is half-saturated. `Nc1ncnc2c1ncn2[C@@H]1O[C@H](COP(=O)(O)OP(=O)(O)O)[C@@H](O)[C@H]1O` [ADP]: the Kd by setting is: (Itk^32K L351A non-phosphorylated, read-out: Kd) 21 µM; (activation loop-phosphorylated (pTyr511) Itk^32K L351A, read-out: Kd (binding constant)) 30 µM.

These data come from paper PMC5727165, “A switch in nucleotide affinity governs activation of the Src and Tec family kinases” (Scientific Reports, 2017).
